In article PMC4894652 (Neuron, 2016):

The compounds below were run against T1, DmSLC22A (CG7442) (Drosophila melanogaster, UniProt Q7JRD5). Details: labelled compound; doxycycline-induced vs un-induced cells.
T1 sequence (Q7JRD5 1-568): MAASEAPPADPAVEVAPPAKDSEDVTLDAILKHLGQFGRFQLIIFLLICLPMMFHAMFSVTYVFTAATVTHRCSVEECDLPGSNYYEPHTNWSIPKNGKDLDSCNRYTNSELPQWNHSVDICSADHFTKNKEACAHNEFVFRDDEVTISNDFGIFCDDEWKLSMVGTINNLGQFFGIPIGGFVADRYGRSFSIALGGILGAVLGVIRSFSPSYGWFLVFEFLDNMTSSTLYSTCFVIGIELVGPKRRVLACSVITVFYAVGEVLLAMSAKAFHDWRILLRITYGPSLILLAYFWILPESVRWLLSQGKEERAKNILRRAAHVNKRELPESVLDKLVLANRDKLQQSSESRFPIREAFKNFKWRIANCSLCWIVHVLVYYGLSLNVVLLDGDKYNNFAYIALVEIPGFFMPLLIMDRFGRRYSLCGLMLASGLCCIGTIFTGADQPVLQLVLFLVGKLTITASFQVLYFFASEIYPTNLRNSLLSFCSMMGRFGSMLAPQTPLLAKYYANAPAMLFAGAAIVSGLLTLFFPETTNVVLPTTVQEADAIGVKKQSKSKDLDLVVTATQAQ
Type: cell-based

Row | Structure (SMILES) | apparent Km
1 | CC(=O)OCC[N+](C)(C)C [acetylcholine] | choline and acetylcholine are transported with low μM Km values
2 | C[n+]1ccc(-c2ccccc2)cc1 [MPP] | Table S2 lists the apparent Km and Vmax values for each substrate
3 | NCCc1c[nH]c2ccc(O)cc12 [serotonin] | Table S2 lists the apparent Km and Vmax values for each substrate
4 | C[N+](C)(C)CC(=O)[O-] [betaine] | Table S2 lists the apparent Km and Vmax values for each substrate
5 | NCCc1c[nH]cn1 [histamine] | Table S2 lists the apparent Km and Vmax values for each substrate
6 | CC[N+](CC)(CC)CC [TEA] | Table S2 lists the apparent Km and Vmax values for each substrate
7 | C[N+](C)(C)CCO [choline] | choline and acetylcholine are transported with low μM Km values
